The compounds below were run against SIK2 (Homo sapiens, UniProt Q9H0K1) (assay: SIK2 Enzymatic Assay High Version 2 (High ATP)). Details: not given.
Sequence of SIK2 (Q9H0K1 whole entry, species assumed): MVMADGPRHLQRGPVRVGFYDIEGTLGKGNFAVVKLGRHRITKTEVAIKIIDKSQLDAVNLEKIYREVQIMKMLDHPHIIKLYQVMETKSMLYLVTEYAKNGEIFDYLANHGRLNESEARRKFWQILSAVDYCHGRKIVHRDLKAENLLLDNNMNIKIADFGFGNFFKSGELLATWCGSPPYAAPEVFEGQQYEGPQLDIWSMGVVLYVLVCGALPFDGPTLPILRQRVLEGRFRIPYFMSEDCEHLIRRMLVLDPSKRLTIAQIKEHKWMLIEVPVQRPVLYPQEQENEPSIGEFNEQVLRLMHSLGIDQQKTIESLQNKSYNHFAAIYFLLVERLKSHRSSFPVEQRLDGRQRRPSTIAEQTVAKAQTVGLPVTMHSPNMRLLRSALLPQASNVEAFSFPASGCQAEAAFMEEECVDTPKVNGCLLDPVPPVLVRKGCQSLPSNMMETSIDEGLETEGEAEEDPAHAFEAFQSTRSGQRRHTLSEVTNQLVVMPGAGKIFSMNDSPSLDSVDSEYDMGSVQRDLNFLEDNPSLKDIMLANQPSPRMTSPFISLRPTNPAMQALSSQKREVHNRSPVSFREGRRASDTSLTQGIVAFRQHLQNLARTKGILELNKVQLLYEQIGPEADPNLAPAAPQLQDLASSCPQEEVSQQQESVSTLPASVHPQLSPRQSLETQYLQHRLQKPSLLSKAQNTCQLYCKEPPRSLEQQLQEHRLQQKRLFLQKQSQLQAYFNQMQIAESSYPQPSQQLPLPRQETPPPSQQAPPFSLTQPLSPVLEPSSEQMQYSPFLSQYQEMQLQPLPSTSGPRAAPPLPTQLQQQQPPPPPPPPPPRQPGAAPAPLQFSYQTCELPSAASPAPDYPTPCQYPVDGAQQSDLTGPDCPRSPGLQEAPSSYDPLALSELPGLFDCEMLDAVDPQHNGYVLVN
Type: biochemical
Procedure: All steps were performed at room temperature. Compounds were pre-plated onto an assay plate using an Echo acoustic dispenser (Labcyte, E550 or E555) at 80 nL per well. Enzyme prepared in assay buffer at 6 nM (2× final concentration) was added at 4 μL per well using the Multidrop Combi (Thermo Fisher—used for all additions in this assay) to the assay plate, spun for 1 min at 1000 rpm (Allegra 6KR Beckman Coulter centrifuge), and incubated with compound for 30 minutes. Assay buffer containing 6 mM ATP and 400 μM HDAC5tide (2× of final concentration for each substrate) was added at 4 μL per well to the assay plate and then spun as above and incubated for 2 hours. […] ADP-Glo Max Reagent (prepared and aliquoted as per manufacturer instructions) was then added at 8 μL per well, spun and incubated for 2 hours. ADP-Glo Max Detection (prepared and aliquoted as per manufacturer instructions) was added at 8 μL per well to the assay plate, which was spun and incubated for 1 hour. The plate is then read on the Pherastar (BMG Labtech) using a luminescence read. Gain is set between 2200-2500.
Cc1cc(-c2ccn3nc(Nc4cn(C)nc4F)cc3c2)c(O[C@H]2C[C@H]3COC[C@@H](C2)N3)cn1 [Example 398, N-(3-fluoro-1-methyl-pyrazol-4-yl)-5-[2-methyl-5-[[(1S,5R,7s)-3-oxa-9-azabicyclo[3.3.1]nonan-7-yl]oxy]-4-pyridyl]pyrazolo[1,5-a]pyridin-2-amine] was tested, and the IC50 was less than 0.000847 µM. With Cc1cc(-c2ccn3nc(Nc4cnn(C(F)F)c4)cc3c2)c(O[C@H]2C[C@H]3COC[C@@H](C2)N3)cn1 [Example 117, 5-(5-(((1R,5S,7s)-3-oxa-9-azabicyclo[3.3.1]nonan-7-yl)oxy)-2-methylpyridin-4-yl)-N-(1-(difluoromethyl)-1H-pyrazol-4-yl)pyrazolo[1,5-a]pyridin-2-amine] the IC50 was 0.000904 µM. Cc1cc(-c2ccn3nc(NC(=O)[C@@H]4C[C@H]4C)cc3c2)c(O[C@@H]2[C@@H]3CO[C@H]2CN3)cn1 [Example 463, (1R,2R)-2-methyl-N-[5-[2-methyl-5-[[(1S,4S,7R)-2-oxa-5-azabicyclo[2.2.1]heptan-7-yl]oxy]-4-pyridyl]pyrazolo[1,5-a]pyridin-2-yl]cyclopropanecarboxamide] showed an IC50 of 0.0107 µM. For CNC(=O)c1ccnc(Nc2cc3cc(-c4cc(C)ncc4O[C@H]4C[C@H]5COC[C@@H](C4)N5C)ccn3n2)c1 [Example 409, N-methyl-2-[[5-[2-methyl-5-[[(1S,5R,7s)-9-methyl-3-oxa-9-azabicyclo[3.3.1]nonan-7-yl]oxy]-4-pyridyl]pyrazolo[1,5-a]pyridin-2-yl]amino]pyridine-4-carboxamide], the IC50 was less than 0.000847 µM. Cc1cc(-c2ccn3nc(NC(=O)C4CC4)cc3c2)c(OC[C@H]2CCN2C2CC2)cn1 [Example 574, N-[5-[5-[[(2R)-1-cyclopropylazetidin-2-yl]methoxy]-2-methyl-4-pyridyl]pyrazolo[1,5-a]pyridin-2-yl]cyclopropanecarboxamide] gave an IC50 of 0.0804 µM. Compound Cc1cc(-c2ccn3nc(Nc4ccnc(C)n4)cc3c2)c(O[C@H]2C[C@H]3COC[C@@H](C2)N3S(C)(=O)=O)cn1 [Example 630] has an IC50 of 1.18 µM.

Same assay, conditions: enzyme 6 nM, 6 mM ATP and 400 μM HDAC5tide (each 2× final concentration); 30 minutes pre-incubation, 2 hours; ADP-Glo Max luminescence; read-out: SIK2 high ATP IC50 (μM) (Test Example 2)
Work on Cc1cc(-c2ccn3nc(NC(=O)C4CC4)cc3c2)c(OC[C@]2(F)CCNC2)cn1 (single isomer, unassigned) [Example 448, (*S)—N-[5-[5-[(3-fluoropyrrolidin-3-yl)methoxy]-2-methyl-4-pyridyl]pyrazolo[1,5-a]pyridin-2-yl]cyclopropanecarboxamide] yielded an IC50 of 0.0469 µM. Cc1cc(-c2ccn3nc(Nc4cccnn4)cc3c2)c(OC[C@@H]2CN[C@H](C)CO2)cn1 [Example 513, 5-[2-methyl-5-[[(2S,5R)-5-methylmorpholin-2-yl]methoxy]-4-pyridyl]-N-pyridazin-3-yl-pyrazolo[1,5-a]pyridin-2-amine] gave an IC50 of 0.0275 µM. CO[C@@]1(COc2cnc(C)cc2-c2ccn3nc(NC(=O)C4CC4)cc3c2)CCNC1 (single isomer, unassigned) [Example 215, (*S)—N-[5-[5-[(3-methoxypyrrolidin-3-yl)methoxy]-2-methyl-4-pyridyl]pyrazolo[1,5-a]pyridin-2-yl]cyclopropanecarboxamide] showed an IC50 of 0.0037 µM. In the case of Cc1cc(-c2ccn3nc(Nc4cc(C)nc(C)n4)cc3c2)c(OC[C@@]23CN[C@@H](CO2)C3)cn1 [Example 238, N-(2,6-dimethylpyrimidin-4-yl)-5-[2-methyl-5-[[(1R,4R)-5-oxa-2-azabicyclo[2.2.1]heptan-4-yl]methoxy]-4-pyridyl]pyrazolo[1,5-a]pyridin-2-amine], the IC50 is reported as 0.00226 µM. For CC#Cc1cc(-c2ccn3nc(Nc4cnn(C)c4)cc3c2)c(OC[C@H]2OCC[C@@H]2O)cn1 [Example 300, (2R,3S)-2-[[4-[2-[(1-methylpyrazol-4-yl)amino]pyrazolo[1,5-a]pyridin-5-yl]-6-prop-1-ynyl-3-pyridyl]oxymethyl]tetrahydrofuran-3-ol], the IC50 was 0.00639 µM.

From patent US20240158392A1 (Janssen Biotech, Inc., priority 2021, published 2024)
